Assay results: article PMC5889558, “The inhibition of human lung fibroblast proliferation and differentiation by Gs-coupled receptors is not predicted by the magnitude of cAMP response” (Respiratory Research, 2018)
Read-outs that look alike come from different tables or passages of the source.

Experiments:
Assay type in all cases: cell-based
[1] = tested on: human lung fibroblasts (HLF); assay: HLF proliferation by BrdU incorporation (DELFIA), driven by FBS or PDGF; conditions: Homo sapiens, Fibroblast, inhibition of BrdU incorporation, 24 h, NC = not calculated due to incomplete curve; for EC50: mean ± SEM
Description: Proliferation of HLF was measured by incorporation of bromodeoxyuridine (BrdU). HLF were seeded overnight at 4000 cells/well in 96-well black ViewPlates, before being starved for 24 h in culture medium devoid of FBS. Proliferation was measured after incubation with a range of concentrations of FBS or PDGF, in DMEM supplemented with 0.1% w/v HSA, for 24 h.
For anti-remodelling assays using BrdU incorporation, cells were incubated for 24 h with a range of concentrations of test compounds in the presence of near maximal concentrations of FBS or PDGF in DMEM supplemented with 0.1% w/v HSA. Proliferation was assessed using the DELFIA BrdU incorporation assay kit following manufacturer protocol. Fluorescence was measured using a Packard EnVision plate reader. To account for the inter-assay variation in levels of proliferation in each experiment, data were normalized to the PDGF or FBS response.

[2] = tested on: human lung fibroblasts (HLF); assay: Fibroblast to myofibroblast transdifferentiation (FMT), αSMA immunofluorescence, TGFβ-driven; conditions: 48 h, TGFβ 0.3 ng/mL
Description: To assess the differentiation of fibroblasts to the myofibroblast phenotype, immunofluorescence was used to monitor increases in α smooth muscle actin (αSMA). HLF were seeded overnight at 1000 cells/well in 384-well black clear bottom plates, before being starved for 24 h growth medium devoid of FBS.
For anti-remodelling assays using FMT, cells were incubated for 48 h with a range of concentrations of test compounds and incubated for 48 h, at 37°C, 5% CO2 in the presence of a near maximal concentration of TGFβ (0.3 ng/mL), to promote differentiation in DMEM supplemented with 0.1% w/v HSA. Following stimulation, cells were fixed in 4% paraformaldehyde, washed 3× in PBS (with Ca^2+/Mg^2+), and incubated with permeabilising blocking buffer (dPBS (with Ca^2+/Mg^2+), 10% FBS (v/v), 0.1% Triton X-100 (v/v)) for 1 h at 37°C. Wells were then washed 3× in wash buffer (Tris Buffered Saline (TBS), 0.05% (v/v) Tween-20) and incubated with mouse anti-α SMA (1:1000 dilution in permeabilising blocking buffer) for 1 h at room temperature, with gentle shaking. Following 3× wash in wash buffer, wells were incubated with blocking buffer containing Hoechst to stain for nuclear DNA (2 μM), and FITC-conjugated Affini-pure goat […] IgG (1:1000 dilution in blocking buffer) for 30 min at 37°C. Fluorescence was then quantified on a widefield ImageXpress Micro microscope, with a Plan Fluor 20X objective, DAPI filter cube (excitation 400–418 nm, emission 435–470 nm), 50 ms exposure time for nuclei, and FITC filter cube (excitation 467–498 nm, emission 513–556 nm), 200 ms exposure time for αSMA.
To quantify increases in αSMA fluorescence, a standard Multi-Wavelength Cell Scoring algorithm was used in MetaXpress 5.3 software (Molecular Devices, California, USA). To account for the inter-assay variation in levels of αSMA expression produced in each experiment, data were normalized to the response to TGFβ.

[3] = tested on: human lung fibroblasts (HLF); assay: PDGF-mediated ERK phosphorylation (pERK imaging); conditions: 30 min pre-incubation, 3 ng/mL PDGF for 10 min
Description: HLF were seeded overnight at 6000 cells/well in 96-well black clear bottom plates then starved for 24 h in the growth medium devoid of all additives. […] Fluorescence was then quantified on the InCell2000, using DAPI settings to visualize nuclei (0.1 s exp) and FITC settings for pERK (2 s exp). To quantify levels of pERK fluorescence, a standard Multi-Target Analysis algorithm was used in the INCell Analyzer Workstation (v3.7.1). To account for the inter-assay variation in levels of ERK phosphorylation produced in each experiment, data were normalized to the EC80 PDGF response.

[4] = tested on: human lung fibroblasts (HLF); assay: Cell viability assay, caspase-3/7 as marker of apoptosis; conditions: human, 24 h
Description: Cell viability was measured using caspase-3/7 expression as a marker of apoptosis after treatment for 24 h with test compounds. HLF were seeded overnight at 6,000 cells/well in 96-well black ViewPlates, before being starved for 24 hours in culture medium devoid of FBS. Cells were incubated for 24 hours in the presence of test compounds at the top concentrations used in the proliferation assays, or in the presence of 100 nM staurosporine to induce apoptosis.
The presence of the apoptotic marker caspase-3/7 was detected by incubating cells with 8 μM CellEvent™ Caspase-3/7 Red Detection Reagent in dPBS with 5 % FBS, for 30 minutes at 37°C. […] Images were analyzed using a multi wavelength cell scoring algorithm within the MetaXpress 5.3 software, which measures cell number using stained nuclei, and percent of these cells positive for caspase-3/7 from Cy5 readouts. To account for the inter-assay variation in levels of caspase 3/7 detected in each experiment, data were normalized to the staurosporine response.
Statistical significance across treatment groups was determined by using the one-way ANOVA with Dunnett’s multiple-comparison post hoc test.

[5] = tested on: human lung fibroblasts (HLF); assay: Fibroblast to myofibroblast transdifferentiation (FMT), αSMA immunofluorescence, TGFβ-driven; conditions: data not shown

| Molecule | Emax ([1]; EC80 PDGF, percentage of maximal proliferation observed with PDGF, read-out: Proliferation vs PDGF Emax (% max)) [%] | EC50 ([1]; EC80 concentration of PDGF, read-out: Proliferation vs PDGF pEC50 (converted)) [µM] | EC50 ([1]; EC80 concentration of serum, read-out: Proliferation vs serum pEC50 (converted)) [µM] | Emax ([1]; EC80 serum, percentage of maximal proliferation observed with serum, read-out: Proliferation vs serum Emax (% max)) [%] | inhibition of TGFβ-driven FMT (in words) [2] | inhibition of PDGF-mediated ERK phosphorylation (in words) [3] | % cells positive for caspase-3/7, 1:10 dilution ([4]; 3 μM) [%] | % cells positive for caspase-3/7, Top conc ([4]; 30 μM) [%] | EC50 for promoting FMT [5] [ng/mL] |
| --- | --- | --- | --- | --- | --- | --- | --- | --- | --- |
| C=C[C@@]1(C)CC(=O)[C@]2(O)[C@@]3(C)[C@@H](O)CCC(C)(C)[C@@H]3[C@H](O)[C@H](OC(C)=O)[C@@]2(C)O1 [Forskolin] | 90.8 ± 9.12 | 1.05 | 5.25 | 74 ± 6.7 | completely inhibit FMT | inhibited PDGF-mediated ERK phosphorylation | 0.61 ± 0.15 | 1.26 ± 0.35 |  |
| Transforming growth factor β [TGFβ] |  |  |  |  |  |  |  |  | 0.07 ± 0.01 |
